Legend:
[1] = Example 12 HFD mice: serum test; format: in vivo, mouse; settings: serum of HFD mice, oral once daily for 10 weeks; chiisanogenin 50 mg/kg; Garcinia cambogia extract 200 mg/kg; combination 50 + 150 mg/kg; Met 50 mg/kg
Protocol: The test drug was dispersed in 0.5% Carboxymethyl cellulose (CMC) and administered in a volume of 0.2 ml, and the drug was administered orally by force into the stomach using a metal Zonde for oral administration. Blood was collected by cardiac puncture to conduct a blood biochemical test after the end of the final experiment, and then plasma was separated by centrifugation at 3,000 rpm and 4° C. for 15 minutes within 30 minutes after blood collection, and then stored at −74° C. for blood chemistry and ELISA analysis. The contents of total cholesterol, high-density lipoprotein (HDL), low-density lipoprotein (LDL), triglyceride, FFA, glucose, and LDH, which are indicators of lipid content, were measured using an automated biochemical analyzer (Hitachi-720, Hitachi Medical, Japan). IGF-1 and Creatine were diluted in coating buffer, coated on microwells, and left overnight at 4° C. […] 100 μl of the TMB substrate was dispensed, left in the dark for 30 minutes, treated with 50 μl of the stop solution, and absorbance was measured at a wavelength of 450 nm using an ELISA reader. Results obtained from various experiments are recorded as mean±standard error of mean (SEM), and significance verification is determined using the student's T-test analysis method. […]

[2] = Example 11 HFD mice: serum test; format: in vivo, mouse; settings: oral once daily 10 weeks, 50 mg/kg
Protocol: After adapting 8-week-old male C57b1/6 J mice to the basic diet (AIN-76A diet) for 2 weeks, and consuming Diet Induced Obesity Diet Formulas (D12451) 60 kcal % HFD diet for 2 weeks from 10 weeks of age, and then the test drug was administered when the average body weight reached 28 g or more. The animal breeding room environment of the mouse was maintained in a constant temperature (25±2° C.), constant humidity (50±5%) and a 12-hour photoperiod (light on 07:00˜19:00) in which the light and shade were controlled in an SPF environment. […] The test drug was dispersed in 0.5% Carboxymethyl cellulose (CMC) and administered in a volume of 0.2 ml, and the drug was administered orally by force into the stomach using a metal Zonde for oral administration.
Blood was collected by cardiac puncture to conduct a blood biochemical test after the end of the final experiment, and then plasma was separated by centrifugation at 3,000 rpm and 4° C. for 15 minutes within 30 minutes after blood collection, and then stored at −74° C. for blood chemistry and ELISA analysis. The contents of total cholesterol, high-density lipoprotein (HDL), low-density lipoprotein (LDL), triglyceride, FFA, glucose, and LDH, which are indicators of lipid content, were measured using an automated biochemical analyzer (Hitachi-720, Hitachi Medical, Japan). IGF-1 and Creatine were diluted in coating buffer, coated on microwells, and left overnight at 4° C. After washing each well with the buffer solution three times, 100 μl of serum (10-fold dilution) was dispensed, left at room temperature for 1 hour, and then washed twice with the buffer solution. Thereafter, 100 μl of the antibody avidin-HRP conjugate was treated, left at room temperature for 1 hour, and then washed again. 100 μl of the TMB substrate was dispensed, left in the dark for 30 minutes, treated with 50 μl of the stop solution, and absorbance was measured at a wavelength of 450 nm using an ELISA reader.
Results obtained from various experiments are recorded as mean±standard error of mean (SEM), and significance verification is determined using the student's T-test analysis method. The data were analyzed using one-way ANOVA to determine a statistically significant variance between each group for each final point measured, and statistical significance between each group was determined using the nonparametric Mann-Whitney test and Dunnett's multiple comparison test (IBM SPSS statistics version 19.0 statistic software, Inc, IBM, USA).

Q: What does the source list for `CN(C)C(=N)N=C(N)N` [Met, Metformin]?
A: Creatin (mg/dL), mean ± standard error [1]: 0.564 ± 0.011 mg/dL; Cholesterol [2]: 175.6 ± 9.03 mg/dL; Creatin [2]: 0.564 ± 0.011 mg/dL; Glucose [2]: 202.5 ± 7.98 mg/dL; HDL [2]: 88.1 ± 2.99 mg/dL; IGF-1 [2]: 1455.8 ± 138.07 pg/mL; Inhibition Rate (Cholesterol) [2]: 40%; Inhibition Rate (Creatin) [2]: 175%; Inhibition Rate (Glucose) [2]: 11%; Inhibition Rate (HDL) [2]: 7%; Inhibition Rate (IGF-1) [2]: 89%; Inhibition Rate (LDH) [2]: 122%; Inhibition Rate (LDL) [2]: 71%; Inhibition Rate (NEFA) [2]: 61%; Inhibition Rate (Triglyceride) [2]: 65%; LDH [2]: 592.0 ± 53.77 U/L; LDL [2]: 12.3 ± 0.80 mg/dL; NEFA [2]: 2.26 ± 0.10 mEq/L; Triglyceride [2]: 118.6 ± 5.90 mg/dL

From patent US12390505B2, “Composition for preventing or treating obesity or diabetes, comprising acanthopanax senticosus extract and garcinia cambogia extract or compound isolated therefrom” (KOREA RESEARCH INSTITUTE OF BIOSCIENCE AND BIOTECHNOLOGY, priority 2020, dated 2025)
